{
  "source": "paper PMC8481687",
  "about": "“Anti-diabetic Potential of a Stigmasterol From the Seaweed Gelidium spinosum and Its Application in the Formulation of Nanoemulsion Conjugate for the Development of Functional Biscuits” (Frontiers in Nutrition, 2021)",
  "biological_target": "α-amylase",
  "experiment": "starch hydrolysis, dinitrosalicylic acid assay at […] nm",
  "format": "biochemical",
  "data": [
    {"compound": "CC[C@H](/C=C/[C@@H](C)[C@H]1CC[C@H]2[C@@H]3CC=C4C[C@@H](O)CC[C@]4(C)[C@H]3CC[C@]12C)C(C)C", "note": "[stigmasterol]", "values": [
      {"measurement": "IC50", "value": 89.27, "unit": "µg/mL"}
    ]}
  ]
}
